Experimental data from patent EP4682149A1 (Prime Gene Therapeutics Co., Ltd., priority 2023, dated 2024).
In brackets after ≈: the same amount, converted by molar mass.

Experiments:
[1] = Solubility determination in buffer solutions (HPLC); type: physicochemical; details: for solubility: 37°C
Method: Appropriate amounts of Forms III, IV, and V were weighed and added to buffer solutions with pH 4.5 and 6.8 to prepare a suspension at 5 mg/mL. The resulting suspension was stirred at 37°C, and samples were collected and analyzed at 5, 30, 60, and 240 minutes. Use a syringe to draw approximate 1 mL of the suspension, filter it through a membrane filter, and dilute it several times before testing the resulting filtrate with HPLC, using the area normalization method to determine the solubility. Table 8 Tests of different crystal forms at various pH values

[2] = Competitive slurry test (XRD of the solid); type: physicochemical; details: for form transformation in competitive slurry: ethanol/water (1/1) (80°C), acetonitrile (70°C), acetonitrile/water (70°C)
Method: The relative stability of Form II and Form III was investigated by competitive slurry test. Approximately 5 mg of Form II and Form III were weighed, mixed, and then added in 1/1 ratio of methanol/n-heptane, ethanol and ethyl acetate, respectively, to prepare a suspension. The suspension was stirred at room temperature for several hours, then centrifuged and the solid was analyzed by XRD.
Competitive slurry studies were conducted to investigate the relative stability of Forms III, IV, and V. 5 mg of Forms III, IV, and V were weighed and mixed uniformly. Suspensions were prepared respectively in ethanol (80°C), ethanol/water (1/1) (80°C), water (60°C), water (25°C), acetonitrile (70°C), and acetonitrile/water (1/1) (70°C). The suspensions were stirred for 12 hours, and the solids were centrifuged and analyzed by XRD. Table 6: Competitive slurry results of Forms III, IV and V

[3] = Stability investigation (HPLC purity at 220 nm and XRD); type: physicochemical; details: for chemical stability / crystal form change: 40°C/75%RH and 25°C/60%RH for 7 days
Method: The analysis method is as follows: Octadecylsilane bonded silica gel was used as the filler (Kromasil C 18 4.6 mm × 250 mm, 5 µm); 0.01 mol/L potassium dihydrogen phosphate solution (pH was adjusted to 3.0 with phosphoric acid) was used as mobile phase A, and methanol was used as mobile phase B. Gradient elution was performed according to the table below; the detection wavelength was 220 nm; the column temperature was 40°C; the flow rate was 1.0 ml/min; the injection volume was 10 µl, and the HPLC purity was calculated by the area normalization method.
Appropriate amounts of Form III, IV, and V were weighed in sample bottles and stored uncovered at 80°C, 40°C/75% RH, and 25°C/60% RH for 7 days. Samples were collected at 0, 1, 3, and 7 days for HPLC and XRD analysis. Table 7 Stability test results of Form III, IV and V

[4] = Pharmacokinetic (PK) determination in adult Beagle dogs; type: in vivo
Method: Healthy adult male Beagle dogs were obtained from Beijing Marshall Biotechnology Co., Ltd. Three groups were divided into this study and administered via oral gavage at a dose of 19.5 mg/kg. Animals receiving oral gavage were fasted overnight and from 10 hours before to 4 hours after administration. Blood samples were collected 15 minutes, 30 minutes, 45 minutes, 1 hour, 1.5 hours, 3 hours, 4 hours, 6 hours, 8 hours, and 24 hours after gavage. Blood samples (1 mL) were collected from the forelimb vein or other suitable venous sampling methods and placed in labeled EDTA-K2 anticoagulant tubes. After gentle inversion to thoroughly mix the anticoagulant with the blood, the tubes were immediately placed on wet ice. Plasma was separated by centrifugation within 1 hour of blood collection in the condition of 4°C, 2200g, and 10 minutes. The separated plasma was placed in labeled EP tubes. Plasma samples were immediately stored in an ultra-low temperature freezer until analysis. Plasma samples should be stored in a refrigerator at -70°C before testing. Plasma samples were extracted using protein precipitation, and the extracts were analyzed by LC/MS/MS.

[5] = Determination of bioavailability in adult SD rats; type: in vivo; details: Sprague-Dawley, rat, plasma, female SD rats
Method: Healthy adult female Sprague-Dawley rats were obtained from Beijing Weitong Lihua Laboratory Animal Technology Co., Ltd. The study was conducted in two phases: first, animals received a single intravenous injection of 1 mg/kg; second, one week later, the same group received a single oral gavage of the suspension at a dose of 10 mg/kg. Animals receiving oral gavage were fasted overnight and from 10 hours before to 4 hours after administration. Animals in the intravenous group were not restricted to food. Blood samples were collected at 0.083, 0.25, 0.5, 1, 2, 4, 6, 8, and 24 hours after administration for the intravenous group and at 0.25, 0.5, 1, 2, 4, 8, and 24 hours after administration for the oral group. After isoflurane anesthesia by using a small animal anesthesia machine, 0.4 ml of whole blood was obtained from the retinal venous plexus. The sample was centrifuged at 4000 rpm for 20 minutes at 4°C. Plasma was separated and placed in labeled EP tubes. Plasma samples were immediately stored in an ultra-low temperature freezer until analysis. Plasma samples should be stored in a refrigerator at -70°C before testing. Plasma samples were extracted using protein precipitation, and the extracts were analyzed by LC/MS/MS.

JAK1/2/3 = experiment: Enzymatic activity (IC50) test, Lance Ultra TR-FRET; details: JAK1/2/3 kinase platform; kinase not given
[6] = male Beagle dogs, oral gavage 19.5 mg/kg, 19.5 mg/kg
[7] = male Beagle dogs, oral gavage 19.5 mg/kg

SMILES | solubility ([1]; PH=4.5 buffer, 5 min) [µg/mL] | solubility ([1]; PH=4.5 buffer, 30 min) [µg/mL] | solubility ([1]; PH=4.5 buffer, 60 min) [µg/mL] | solubility ([1]; PH=4.5 buffer, 240 min) [µg/mL] | solubility ([1]; pH=6.8 buffer, 5 min) [µg/mL] | solubility ([1]; pH=6.8 buffer, 30 min) [µg/mL] | solubility ([1]; pH=6.8 buffer, 60 min) [µg/mL] | solubility ([1]; pH=6.8 buffer, 240 min) [µg/mL] | 220nm (HPLC purity) ([3]; 0 days) [%] | 220nm (HPLC purity) ([3]; 25°C/60%RH, 3 days, uncovered) [%] | 220nm (HPLC purity) ([3]; 25°C/60%RH, 7 days, uncovered) [%] | 220nm (HPLC purity) ([3]; 40°C/75%RH, 3 days, uncovered) [%] | 220nm (HPLC purity) ([3]; 40°C/75%RH, 7 days, uncovered) [%] | chemical stability ([3]; 80°C) | crystal form change ([3]; 80°C) | 220nm (HPLC purity) ([3]; 80°C, 1 day, uncovered) [%] | 220nm (HPLC purity) ([3]; 80°C, 3 days, uncovered) [%] | 220nm (HPLC purity) ([3]; 80°C, 7 days, uncovered) [%] | AUC 0-inf [4, 6] [ng·h/mL] | AUC 0-t [4, 6] [ng·h/mL] | further results
N#CCC1(n2cc(-c3ncnc4[nH]ccc34)c(N)n2)CN(C2CCN(C(=O)c3ccnc(C(F)(F)F)c3F)CC2)C1 [listing 1 of 3 here] | 41.3 (≈ 72.6 µM) | 60.1 (≈ 106 µM) | 65.5 (≈ 115 µM) | 84 (≈ 148 µM) | 11.2 (≈ 19.7 µM) | 29.9 (≈ 52.6 µM) | 33.2 (≈ 58.4 µM) | 41.5 (≈ 73 µM) | 99.83 | 99.90 | 99.95 | 99.89 | 99.90 | relatively stable | did not change | 99.90 | 99.89 | 99.91 | 13248 | 13174 | relative stability of Form II and Form III ([2]; Form II and Form III mixed, methanol/n-heptane 1/1, ethanol, ethyl acetate, room temperature, several hours, XRD): more stable than Form II; form transformation in competitive slurry [2]: transformed into Form IV; Tmax ([4]; dog, plasma, male Beagle dogs, oral gavage 19.5 mg/kg, read-out: Tmax): 1 h; C max [4, 6]: 4057 ng/mL; half-life ([4]; male, beagle, dog, plasma, po, 19.5 mg/kg, male Beagle dogs, oral gavage 19.5 mg/kg): 2.45 h
N#CCC1(n2cc(-c3ncnc4[nH]ccc34)c(N)n2)CN(C2CCN(C(=O)c3ccnc(C(F)(F)F)c3F)CC2)C1 [listing 2 of 3 here] | 47.1 (≈ 82.8 µM) | 65.6 (≈ 115 µM) | 70 (≈ 123 µM) | 73.4 (≈ 129 µM) | 24.7 (≈ 43.4 µM) | 37.2 (≈ 65.4 µM) | 40.2 (≈ 70.7 µM) | 40.2 (≈ 70.7 µM) | 99.57 | 99.59 | 99.63 | 99.53 | 99.63 | relatively stable | did not change | 99.57 | 99.60 | 99.57 | 27789 | 27750 | AUC 0-inf ([5]; IV (1 mg/kg)): 456 ng·h/mL; half-life ([5]; IV (1 mg/kg)): 0.61 h; clearance ([5]; IV (1 mg/kg), read-out: Cl s,app): 37.7 mL/min/kg; Vd ([5]; IV (1 mg/kg), read-out: VZ): 1.5 L/kg; bioavailability ([5]; PO (10 mg/kg) vs IV (1 mg/kg)): 17%; AUC 0-inf ([5]; PO (10 mg/kg), suspension): 783 ng·h/mL; Cmax ([5]; PO (10 mg/kg), suspension): 475 ng/mL; Tmax ([5]; PO (10 mg/kg), suspension): 0.5 h; half-life ([5]; PO (10 mg/kg), suspension): 1.9 h; solubility relative to Form V ([1]; pH = 4.5 (postprandial gastric juice), 240 min): twice that of Form V; solubility relative to Form V ([1]; pH = 6.8 (simulated intestinal fluid), 240 min): twice that of Form V; relative stability of the forms ([2]; conclusion from competitive slurry of Forms III, IV, V): the most stable of the five forms; pharmacokinetic properties after PO administration ([4]; comparison of the crystal forms): better pharmacokinetic properties; Tmax [4, 7]: 1.00 h; C max [4, 6]: 6197 ng/mL; t 1/2 [4, 6]: 2.63 h
N#CCC1(n2cc(-c3ncnc4[nH]ccc34)c(N)n2)CN(C2CCN(C(=O)c3ccnc(C(F)(F)F)c3F)CC2)C1 [listing 3 of 3 here] | 11.2 (≈ 19.7 µM) | 25.8 (≈ 45.4 µM) | 28.9 (≈ 50.8 µM) | 35.6 (≈ 62.6 µM) | 7.6 (≈ 13.4 µM) | 13.3 (≈ 23.4 µM) | 16 (≈ 28.1 µM) | 19 (≈ 33.4 µM) | 98.02 | 98.10 | 97.87 | 98.02 | 98.01 | relatively stable | did not change | 98.05 | 98.03 | 98.02 | 8431 | 8354 | form transformation in competitive slurry [2]: transformed into Form IV; Tmax [4, 7]: 1.00 h; C max [4, 6]: 2440 ng/mL; t 1/2 [4, 6]: 2.86 h
N#CCC1(n2cc(-c3ncnc4[nH]ccc34)cn2)CN(C2CCN(C(=O)c3ccnc(C(F)(F)F)c3F)CC2)C1 [Itacitinib, reference compound] | – | – | – | – | – | – | – | – | – | – | – | – | – | – | – | – | – | – | – | – | IC50 (JAK1/2/3): < 10 nM
N#CCC1(n2cc(-c3ncnc4[nH]ccc34)c(N)n2)CN(C2CCN(Cc3ccnc(C(F)(F)F)c3F)CC2)C1 [compound of formula I (amorphous form), 2-(3-(3-amino-4-(7H-pyrrolo[2,3-d]pyrimidin-4-yl)-1H-pyrazol-1-yl)-1-(1-(3-fluoro-2-(trifluoromethyl)isonicotinyl)piperidin-4-yl)azetidin-3-yl)acetonitrile] | – | – | – | – | – | – | – | – | – | – | – | – | – | – | – | – | – | – | – | – | IC50 (JAK1/2/3): < 10 nM
